Data reported in ChEMBL document CHEMBL1142367, “1H-Pyrazolo[3,4-g]hexahydro-isoquinolines as selective glucocorticoid receptor antagonists with high functional activity” (Bioorg Med Chem Lett, 2008).

What was measured:
[1] = Oral bioavailability in rat; type: ADME, organism-based; settings: in vivo
Glucocorticoid receptor [2] = target: T1, Glucocorticoid receptor (Homo sapiens, UniProt P04150); assay: Antagonist activity at GR in SW1353/MMTV5 cells assessed as inhibition of dexamethasone-induced luciferase expression; type: functional, cell-based
T1 sequence (P04150 whole entry): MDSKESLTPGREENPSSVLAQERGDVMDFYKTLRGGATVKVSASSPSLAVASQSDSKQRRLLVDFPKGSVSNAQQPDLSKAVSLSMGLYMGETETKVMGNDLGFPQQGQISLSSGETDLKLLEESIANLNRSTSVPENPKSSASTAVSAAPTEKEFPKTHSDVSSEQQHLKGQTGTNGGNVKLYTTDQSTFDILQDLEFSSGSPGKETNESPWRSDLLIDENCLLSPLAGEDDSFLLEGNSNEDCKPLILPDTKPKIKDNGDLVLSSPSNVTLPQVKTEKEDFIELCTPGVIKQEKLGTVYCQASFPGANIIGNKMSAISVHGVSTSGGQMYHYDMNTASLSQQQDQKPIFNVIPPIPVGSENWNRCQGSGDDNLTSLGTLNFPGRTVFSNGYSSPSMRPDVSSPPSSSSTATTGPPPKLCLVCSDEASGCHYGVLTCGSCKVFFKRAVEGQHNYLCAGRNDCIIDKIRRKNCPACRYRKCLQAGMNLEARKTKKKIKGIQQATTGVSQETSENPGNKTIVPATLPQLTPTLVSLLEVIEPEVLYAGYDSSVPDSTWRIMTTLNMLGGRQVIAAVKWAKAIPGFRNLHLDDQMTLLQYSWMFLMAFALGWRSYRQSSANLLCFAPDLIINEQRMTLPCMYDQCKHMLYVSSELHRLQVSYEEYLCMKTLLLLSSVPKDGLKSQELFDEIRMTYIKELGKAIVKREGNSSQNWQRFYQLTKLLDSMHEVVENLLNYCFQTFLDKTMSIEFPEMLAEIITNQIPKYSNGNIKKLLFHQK

Glucocorticoid receptor [3] = target: T1, Glucocorticoid receptor; assay: Displacement of [3H]dexamethasone from human recombinant GR

Molecule `CCNC[C@]12Cc3cnn(-c4ccc(F)cc4)c3C=C1CCN(S(=O)(=O)c1ccc(C(C)(C)C)cc1)C2` has a bioavailability [1] of 0%, a Ki (Glucocorticoid receptor [2]) of 16 nM and a Ki (Glucocorticoid receptor [3]) of 2.4 nM.

With `CC(C)NC[C@]12Cc3cnn(-c4ccc(F)cc4)c3C=C1CCN(S(=O)(=O)c1ccc(C(C)(C)C)cc1)C2` the bioavailability [1] was 5%, the Ki (Glucocorticoid receptor [2]) was 17 nM and the Ki (Glucocorticoid receptor [3]) was 2.1 nM.

For `O=C(c1ccccc1)N1CCC2=Cc3c(cnn3-c3ccc(F)cc3)CC2(Cc2ccc(F)cc2)C1` (racemic), the Ki (Glucocorticoid receptor [3]) was > 1000 nM.

Work on `CCOC[C@]12Cc3cnn(-c4ccc(F)cc4)c3C=C1CCN(S(=O)(=O)c1ccc(C(F)(F)F)cc1)C2` [CORT 108297] yielded a Ki (Glucocorticoid receptor [2]) of 6.8 nM and a Ki (Glucocorticoid receptor [3]) of 0.9 nM.

With `O=S(=O)(c1ccccc1)N1CCC2=Cc3c(cnn3-c3ccc(F)cc3)C[C@]2(CO)C1` the Ki (Glucocorticoid receptor [3]) was 10 nM.

With `O=S(=O)(c1ccc(F)cc1)N1CCC2=Cc3c(cnn3-c3ccc(F)cc3)C[C@]2(CN2CCCC2)C1` the Ki (Glucocorticoid receptor [2]) was 8 nM and the Ki (Glucocorticoid receptor [3]) was 1.6 nM.

`CC(C)(C)c1ccc(S(=O)(=O)N2CCC3=Cc4c(cnn4-c4ccc(F)cc4)C[C@]3(COCCO)C2)cc1` showed a Ki (Glucocorticoid receptor [2]) of 8.7 nM and a Ki (Glucocorticoid receptor [3]) of 0.8 nM.

`CC(C)(C)c1ccc(S(=O)(=O)N2CCC3=Cc4c(cnn4-c4ccc(F)cc4)C[C@]3(Cc3ccccc3)C2)cc1` showed a Ki (Glucocorticoid receptor [2]) of 4.7 nM and a Ki (Glucocorticoid receptor [3]) of 1.4 nM.

Work on `Cc1ccc(S(=O)(=O)N2CCC3=Cc4c(cnn4-c4ccc(F)cc4)CC3(Cc3ccc(F)cc3)C2)cc1` (racemic) yielded a Ki (Glucocorticoid receptor [2]) of 17 nM and a Ki (Glucocorticoid receptor [3]) of 1.5 nM.

`C[C@]12Cc3cnn(-c4ccc(F)cc4)c3C=C1CCN(S(=O)(=O)c1ccccc1F)C2` gave a Ki (Glucocorticoid receptor [3]) of 34 nM.

Work on `Cc1ccccc1S(=O)(=O)N1CCC2=Cc3c(cnn3-c3ccc(F)cc3)C[C@]2(C)C1` yielded a Ki (Glucocorticoid receptor [3]) of 22 nM.

For `C[C@]12Cc3cnn(-c4ccc(F)cc4)c3C=C1CCN(S(=O)(=O)c1ccc(C(F)(F)F)cc1)C2`, the Ki (Glucocorticoid receptor [2]) was 78 nM and the Ki (Glucocorticoid receptor [3]) was 3.4 nM.

For `CN(C)C[C@]12Cc3cnn(-c4ccc(F)cc4)c3C=C1CCN(S(=O)(=O)c1ccccc1)C2`, the Ki (Glucocorticoid receptor [2]) was 10 nM and the Ki (Glucocorticoid receptor [3]) was 1.1 nM.

In the case of `O=S(=O)(c1ccc(F)cc1)N1CCC2=Cc3c(cnn3-c3ccc(F)cc3)CC2(Cc2ccc(F)cc2)C1` (racemic), the Ki (Glucocorticoid receptor [2]) is reported as 26 nM and the Ki (Glucocorticoid receptor [3]) is reported as 1.4 nM.

In the case of `CC(C)(C)c1ccc(S(=O)(=O)N2CCC3=Cc4c(cnn4-c4ccc(F)cc4)C[C@]3(COCCC#N)C2)cc1`, the bioavailability [1] is reported as 2%, the Ki (Glucocorticoid receptor [2]) is reported as 5.1 nM and the Ki (Glucocorticoid receptor [3]) is reported as 0.8 nM.

With `C[C@]12Cc3cnn(-c4ccc(F)cc4)c3C=C1CCN(S(=O)(=O)c1ccc(N)cc1)C2` the Ki (Glucocorticoid receptor [2]) was > 1000 nM and the Ki (Glucocorticoid receptor [3]) was 17 nM.

In the case of `C[C@]12Cc3cnn(-c4ccc(F)cc4)c3C=C1CCN(S(=O)(=O)c1ccc(F)cc1)C2`, the Ki (Glucocorticoid receptor [2]) is reported as 293 nM and the Ki (Glucocorticoid receptor [3]) is reported as 9 nM.

Work on `CCN(CC)C[C@]12Cc3cnn(-c4ccc(F)cc4)c3C=C1CCN(S(=O)(=O)c1ccc(C(C)(C)C)cc1)C2` yielded a Ki (Glucocorticoid receptor [2]) of 14 nM and a Ki (Glucocorticoid receptor [3]) of 1.7 nM.

With `COc1ccc(S(=O)(=O)N2CCC3=Cc4c(cnn4-c4ccc(F)cc4)C[C@]3(C)C2)cc1` the Ki (Glucocorticoid receptor [2]) was 178 nM and the Ki (Glucocorticoid receptor [3]) was 3.7 nM.

`COCCOC[C@]12Cc3cnn(-c4ccc(F)cc4)c3C=C1CCN(S(=O)(=O)c1ccc(C)cc1)C2` showed a bioavailability [1] of 8%.

`COC[C@]12Cc3cnn(-c4ccc(F)cc4)c3C=C1CCN(S(=O)(=O)c1ccc(C)cc1)C2` gave a Ki (Glucocorticoid receptor [2]) of 5.7 nM and a Ki (Glucocorticoid receptor [3]) of 0.5 nM.

`COCCNC[C@]12Cc3cnn(-c4ccc(F)cc4)c3C=C1CCN(S(=O)(=O)c1ccc(C(C)(C)C)cc1)C2` gave a bioavailability [1] of 0%, a Ki (Glucocorticoid receptor [2]) of 3.1 nM and a Ki (Glucocorticoid receptor [3]) of 1 nM.

Molecule `CN1CCN(C[C@]23Cc4cnn(-c5ccc(F)cc5)c4C=C2CCN(S(=O)(=O)c2ccc(C(C)(C)C)cc2)C3)CC1` has a Ki (Glucocorticoid receptor [2]) of 85 nM and a Ki (Glucocorticoid receptor [3]) of 6.7 nM.

For `COCCCOC[C@]12Cc3cnn(-c4ccc(F)cc4)c3C=C1CCN(S(=O)(=O)c1ccc(C(C)(C)C)cc1)C2`, the Ki (Glucocorticoid receptor [2]) was 1.6 nM and the Ki (Glucocorticoid receptor [3]) was 0.8 nM.

For `CC(C)(C)c1ccc(S(=O)(=O)N2CCC3=Cc4c(cnn4-c4ccc(F)cc4)C[C@]3(CN3CCC3)C2)cc1`, the bioavailability [1] was 4%, the Ki (Glucocorticoid receptor [2]) was 11 nM and the Ki (Glucocorticoid receptor [3]) was 1.4 nM.

For `CCCOC[C@]12Cc3cnn(-c4ccc(F)cc4)c3C=C1CCN(S(=O)(=O)c1ccc(C(F)(F)F)cc1)C2`, the Ki (Glucocorticoid receptor [2]) was 9 nM and the Ki (Glucocorticoid receptor [3]) was 0.9 nM.
